Experimental data from publication PMC3083410, “A Soluble Acetylcholinesterase Provides Chemical Defense against Xenobiotics in the Pinewood Nematode” (PLoS ONE, 2011).

Assays:
[1] = target: T1, BxACE-3 (Bursaphelenchus xylophilus, UniProt D2JYX1); assay: colorimetric acetylthiocholine/DTNB assay; type: biochemical; settings: read-out: % inhibition at 2 mM
T1 construct: gene AChE3; recombinant, baculovirus system

[2] = target: T2, BxACE-1 (Bursaphelenchus xylophilus, UniProt D2JYW9); assay: colorimetric acetylthiocholine/DTNB assay; type: biochemical; settings: read-out: % inhibition at 2 mM
T2 construct: gene AChE1; recombinant, baculovirus system
T2 sequence (D2JYW9 entry or part of it): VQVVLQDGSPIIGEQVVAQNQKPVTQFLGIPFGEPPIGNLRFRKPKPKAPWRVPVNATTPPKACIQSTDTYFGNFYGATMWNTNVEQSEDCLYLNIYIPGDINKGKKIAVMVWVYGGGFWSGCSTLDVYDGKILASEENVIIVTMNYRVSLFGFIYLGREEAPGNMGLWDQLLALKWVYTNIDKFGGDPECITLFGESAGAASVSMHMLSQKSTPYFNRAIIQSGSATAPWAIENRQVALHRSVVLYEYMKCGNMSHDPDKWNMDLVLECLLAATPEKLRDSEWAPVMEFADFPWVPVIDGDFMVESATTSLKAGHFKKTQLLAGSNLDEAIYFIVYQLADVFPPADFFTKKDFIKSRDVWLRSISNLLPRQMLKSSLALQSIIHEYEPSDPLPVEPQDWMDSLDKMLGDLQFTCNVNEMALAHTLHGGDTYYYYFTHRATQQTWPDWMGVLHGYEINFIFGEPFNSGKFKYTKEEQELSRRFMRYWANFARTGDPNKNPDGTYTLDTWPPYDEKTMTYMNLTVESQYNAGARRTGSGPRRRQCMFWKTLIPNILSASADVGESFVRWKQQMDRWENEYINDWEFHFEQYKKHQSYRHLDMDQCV

T1 sequence (D2JYX1 entry or part of it): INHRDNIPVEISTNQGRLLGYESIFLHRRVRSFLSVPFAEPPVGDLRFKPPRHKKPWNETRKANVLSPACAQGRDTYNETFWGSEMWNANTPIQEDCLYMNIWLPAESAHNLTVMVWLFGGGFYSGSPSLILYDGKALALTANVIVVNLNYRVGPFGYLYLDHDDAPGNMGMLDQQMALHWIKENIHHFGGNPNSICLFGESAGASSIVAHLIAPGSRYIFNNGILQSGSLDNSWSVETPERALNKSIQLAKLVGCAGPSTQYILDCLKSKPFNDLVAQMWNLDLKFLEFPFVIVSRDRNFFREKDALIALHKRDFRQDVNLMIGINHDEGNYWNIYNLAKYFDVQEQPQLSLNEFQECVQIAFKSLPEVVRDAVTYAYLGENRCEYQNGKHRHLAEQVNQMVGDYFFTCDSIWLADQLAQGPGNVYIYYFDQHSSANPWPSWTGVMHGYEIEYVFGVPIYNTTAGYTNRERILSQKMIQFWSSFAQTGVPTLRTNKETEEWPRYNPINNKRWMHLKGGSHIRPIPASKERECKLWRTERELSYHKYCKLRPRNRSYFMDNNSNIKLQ

SMILES | inhibition at 2000 µM [1] | inhibition at 2000 µM [2]
C=C(C)C1CC=C(C)CC1 (stereo not drawn) [limonene] | ~10% | –
CC1=CCC2CC1C2(C)C (stereo not drawn) [α-pinene] | ~10% | ~25%
